Data as given in ChEMBL document CHEMBL3832881, “CO-ADD antimicrobial screening data of OSM samples” (2017).

What was measured:
[1] = tested on: Staphylococcus aureus; assay: Antibacterial activity against Staphylococcus aureus MRSA ATCC 43300; Growth inhibition at 32 ug/mL in CAMBH media using NBS plates.; type: functional, ATCC 43300; MRSA; conditions: ASSAY_TEST Inhibition of Bacterial Growth, CONC 32 ug.mL-1, detection method Absorption (OD600), MEDIA CAMHB, plate type NBS, 384well, time 18 hr
[2] = tested on: Escherichia coli; assay: Antibacterial activity against Escherichia coli ATCC 25922; Growth inhibition at 32 ug/mL in CAMBH media using NBS plates.; type: functional, ATCC 25922; Type strain; conditions: Type strain, ASSAY_TEST Inhibition of Bacterial Growth, CONC 32 ug.mL-1, detection method Absorption (OD600), MEDIA CAMHB, plate type NBS, 384well, time 18 hr
[3] = tested on: Klebsiella pneumoniae; assay: Antibacterial activity against Klebsiella pneumoniae MDR ATCC 70063; Growth inhibition at 32 ug/mL in CAMBH media using NBS plates.; type: functional, ATCC 700603; MDR; conditions: ATCC 700603, ASSAY_TEST Inhibition of Bacterial Growth, CONC 32 ug.mL-1, detection method Absorption (OD600), MEDIA CAMHB, plate type NBS, 384well, time 18 hr
[4] = tested on: Pseudomonas aeruginosa; assay: Antibacterial activity against Pseudomonas aeruginosa ATCC 27853; Growth inhibition at 32 ug/mL in CAMBH media using NBS plates.; type: functional, ATCC 27853; Type strain; conditions: Type strain, ASSAY_TEST Inhibition of Bacterial Growth, CONC 32 ug.mL-1, detection method Absorption (OD600), MEDIA CAMHB, plate type NBS, 384well, time 18 hr
[5] = tested on: Acinetobacter baumannii; assay: Antibacterial activity against Acinetobacter baumannii ATCC 19606; Growth inhibition at 32 ug/mL in CAMBH media using NBS plates.; type: functional, ATCC 19606; Type strain; conditions: Type strain, ASSAY_TEST Inhibition of Bacterial Growth, CONC 32 ug.mL-1, detection method Absorption (OD600), MEDIA CAMHB, plate type NBS, 384well, time 18 hr
[6] = tested on: Candida albicans; assay: Antifungal activity against Candida albicans ATCC 90028; Growth inhibition at 32 ug/mL in YNB media using NBS plates.; type: functional, ATCC 90028; CLSI reference; conditions: CLSI reference, ASSAY_TEST Inhibition of Fungal Growth, CONC 32 ug.mL-1, detection method Absorption (OD600), plate type NBS, 384well, time 18 hr
[7] = tested on: Cryptococcus neoformans; assay: Antifungal activity against Cryptococcus neoformans H99 ATCC 208821; Growth inhibition at 32 ug/mL in YNB media using NBS plates.; type: functional, ATCC 208821; H99 Type strain; conditions: H99 Type strain, ASSAY_TEST Inhibition of Fungal Growth, CONC 32 ug.mL-1, detection method Resazurin, Absorption (OD600-OD570), plate type NBS, 384well, time 18 hr
[8] = tested on: Staphylococcus aureus; assay: Antibacterial activity against Staphylococcus aureus MRSA ATCC 43300; MIC in CAMBH media using NBS plates.; type: functional, ATCC 43300; MRSA; conditions: ASSAY_TEST Inhibition of Bacterial Growth, detection method Absorption (OD600), MEDIA CAMHB, plate type NBS, 384well, time 18 hr
[9] = tested on: Escherichia coli; assay: Antibacterial activity against Escherichia coli ATCC 25922; MIC in CAMBH media using NBS plates.; type: functional, ATCC 25922; Type strain; conditions: Type strain, ASSAY_TEST Inhibition of Bacterial Growth, detection method Absorption (OD600), MEDIA CAMHB, plate type NBS, 384well, time 18 hr
[10] = tested on: Klebsiella pneumoniae; assay: Antibacterial activity against Klebsiella pneumoniae MDR ATCC 70063; MIC in CAMBH media using NBS plates.; type: functional, ATCC 700603; MDR; conditions: ATCC 700603, ASSAY_TEST Inhibition of Bacterial Growth, detection method Absorption (OD600), MEDIA CAMHB, plate type NBS, 384well, time 18 hr
[11] = tested on: Pseudomonas aeruginosa; assay: Antibacterial activity against Pseudomonas aeruginosa ATCC 27853; MIC in CAMBH media using NBS plates.; type: functional, ATCC 27853; Type strain; conditions: Type strain, ASSAY_TEST Inhibition of Bacterial Growth, detection method Absorption (OD600), MEDIA CAMHB, plate type NBS, 384well, time 18 hr
[12] = tested on: Acinetobacter baumannii; assay: Antibacterial activity against Acinetobacter baumannii ATCC 19606; MIC in CAMBH media using NBS plates.; type: functional, ATCC 19606; Type strain; conditions: Type strain, ASSAY_TEST Inhibition of Bacterial Growth, detection method Absorption (OD600), MEDIA CAMHB, plate type NBS, 384well, time 18 hr
[13] = tested on: Candida albicans; assay: Antifungal activity against Candida albicans ATCC 90028; MIC in YNB media using NBS plates.; type: functional, ATCC 90028; CLSI reference; conditions: CLSI reference, ASSAY_TEST Inhibition of Fungal Growth, detection method Absorption (OD630), plate type NBS, 384well, time 18 hr
[14] = tested on: Cryptococcus neoformans; assay: Antifungal activity against Cryptococcus neoformans H99 ATCC 208821; MIC in YNB media using NBS plates.; type: functional, ATCC 208821; H99 Type strain; conditions: H99 Type strain, ASSAY_TEST Inhibition of Fungal Growth, detection method Resazurin, Absorption (OD600-OD570), plate type NBS, 384well, time 18 hr
[15] = Cytotoxicity against HEK293 cells; CC50 by Resazurin assay in DMEM (10% FBS) media using TC plates; type: toxicity, cell-based, ATCC CRL1573; design: time 18 hr; conditions: human

MIC [8] | MIC [9] | MIC [10] | MIC [11] | MIC [12] | MIC [13] | MIC [14] | SMILES | inhibition at 32 µg/mL [1] | inhibition at 32 µg/mL [2] | inhibition at 32 µg/mL [3] | inhibition at 32 µg/mL [4] | inhibition at 32 µg/mL [5] | inhibition at 32 µg/mL [6] | inhibition at 32 µg/mL [7] | CC50 at 18 h [15]
 |  |  |  |  |  |  | c1ccc(CN2CCC3(CC2)OCCc2ccsc23)cc1 | 17.1% | 17.1% | 8.6% | 11.9% | 9.8% | 3.6% | -4% | 
 |  |  |  |  |  |  | Nc1ncnc2cc(-c3ccc(C(=O)N4CCOCC4)cc3)sc12 | 22.2% | 8.6% | 5.4% | 2.4% | 8.3% | 1% | -1.2% | 
 |  |  |  |  |  |  | c1ccc(CN2CCC3(CC2)OCCc2cc(-c4ccccc4)sc23)cc1 | 18.9% | 14.3% | 12.4% | -1.5% | 6.6% | 9.1% | -0.6% | 
 |  |  |  |  |  |  | Cc1cc(/C=C2\S/C(=N\c3ccccc3)NC2=O)c(C)n1-c1ccc(C(F)(F)F)cc1 | 17.9% | 6.8% | 6.7% | 7.3% | 9.1% | 9.8% | -1.7% | 
 |  |  |  |  |  |  | COc1ccc(-n2c(C)cc(/C=C3\S/C(=N\c4cccc(O)c4)NC3=O)c2C)cc1 | 8.9% | 2.1% | -1.3% | -0.1% | -4.5% | 2.5% | -6.8% | 
 |  |  |  |  |  |  | Clc1ccccc1-c1nnc2cncc(OCCc3ccccc3)n12 | 15.3% | 17.8% | 6.2% | 14.7% | 5.2% | 1.8% | -5.6% | 
> 32 µg/mL | > 32 µg/mL | > 32 µg/mL | > 32 µg/mL | > 32 µg/mL | > 32 µg/mL | > 32 µg/mL | CCN1C(=O)c2cccc3c(-n4cc(CN5CCCNCCN(Cc6cn(-c7ccc8c9c(cccc79)C(=O)N(CC)C8=O)nn6)CCCNCC5)nn4)ccc(c23)C1=O.O=C(O)C(F)(F)F.O=C(O)C(F)(F)F | 54% | 20.4% | 17.2% | 15.2% | 31.4% | 5.2% | 1.4% | > 32 µg/mL
 |  |  |  |  |  |  | O=C(CCCC[C@@H]1SC[C@@H]2NC(=O)N[C@@H]21)NCCCn1cc(CN2CCCNCCNCCCNCC2)nn1 | 19.4% | 15.2% | 12.5% | 10.9% | 23% | 2.8% | 41.9% | 
 |  |  |  |  |  |  | O=C(Nc1cccc(Cl)c1)c1cncc2nnc(-c3ccc(OC(F)(F)F)cc3)n12 | 5.8% | 3.5% | 1.6% | 4% | -5.2% | 3.5% | -2.8% | 
